The results in this text go back to ChEMBL document CHEMBL1142807, “Diprolyl nitriles as potent dipeptidyl peptidase IV inhibitors” (Bioorg Med Chem Lett, 2005).

SMILES strings stand for the structures.

The first series in a line: Half Life at 37 degree C and 10 uM in pH 7.0 buffer. It counts as ADME.
In turn, `N#Cc1ccc(NC2CN[C@H](C(=O)N3[C@H](C#N)C[C@@H]4C[C@@H]43)C2)cc1Cl` (stereo not given in full) showed a half-life at 10 µM of 15 h.

The nature of a further series: Inhibitory activity against Dipeptidyl peptidase IV.
Take `N#C[C@@H]1C[C@@H]2C[C@@H]2N1C(=O)[C@@H]1CCN1`: the Ki is > 10000 nM.

With `CC(C)(C)CC(=O)N[C@@H]1CN[C@H](C(=O)N2[C@H](C#N)C[C@@H]3C[C@@H]32)C1`, affinity was put at a Ki of 133 nM.

Take `N#C[C@@H]1C[C@@H]2C[C@@H]2N1C(=O)[C@H]1CCCN1`: the Ki is > 10000 nM.

Turning to `N#C[C@@H]1C[C@@H]2C[C@@H]2N1C(=O)[C@H]1NC[C@@H]2C[C@@H]21`, the Ki is 52 nM.

In turn, `CC[C@H]1CCN[C@@H]1C(=O)N1[C@H](C#N)C[C@@H]2C[C@@H]21` displayed a Ki of 290 nM.

As for `CC1(C)CCN[C@@H]1C(=O)N1[C@H](C#N)C[C@@H]2C[C@@H]21`, the affinity, expressed as Ki, was 37 nM.

The compound `N#C[C@@H]1C[C@@H]2C[C@@H]2N1C(=O)[C@@H]1C[C@H](NC(=O)OCC2c3ccccc3-c3ccccc32)CN1` yielded a Ki of 57 nM.

For the compound `N#C[C@@H]1C[C@@H]2C[C@@H]2N1C(=O)[C@@H]1CCCCN1`, the Ki was > 10000 nM.

In the case of `N#C[C@@H]1C[C@@H]2C[C@@H]2N1C(=O)[C@@H]1CCCN1`, the affinity, expressed as Ki, was 305 nM.

Consider `N#C[C@@H]1C[C@@H]2C[C@@H]2N1C(=O)[C@@H]1C[C@@H]2C[C@@H]2N1`, for which the inhibitory constant (Ki) was > 10000 nM.

On to `CC(C)(C)OC(=O)N[C@@H]1CN[C@H](C(=O)N2[C@H](C#N)C[C@@H]3C[C@@H]32)C1`, for which affinity was put at a Ki of 140 nM.

Regarding `N#C[C@@H]1C[C@@H]2C[C@@H]2N1C(=O)[C@@H]1C[C@H](NS(=O)(=O)c2ccc(Cl)cc2)CN1`, the Ki was 39 nM.

On to `CC(C)(C)OC(=O)NC1CN[C@H](C(=O)N2[C@H](C#N)C[C@@H]3C[C@@H]32)C1` (single isomer, unassigned), for which the Ki is 492 nM.

`C[C@H]1CCN[C@@H]1C(=O)N1[C@H](C#N)C[C@@H]2C[C@@H]21` had a Ki of 126 nM.
